From paper PMC2254147, “Novel Triazine JPC-2067-B Inhibits Toxoplasma gondii In Vitro and In Vivo” (PLoS Neglected Tropical Diseases, 2008)
Like-named read-outs stand apart in the source and are kept apart here.

Assays:
PfDHFR = PfDHFR (Plasmodium falciparum, UniProt Q8I1R6); test: Plate reader DHFR assay, recombinant P. falciparum DHFR; type: biochemical
Text: DHFR from T. gondii prepared as above was also directly compared to purified recombinant P. falciparum DHFR (pfDHFR) and purified recombinant human DHFR (hDHFR). The hDHFR was from pDFR plasmid. The enzyme was purified following ammonium sulfate precipitation, methotrexate:agarose affinity chromatography, and finally a Superdex 200 size exclusion column. The pfDHFR isolation methods were those reported previously,[44]. […] The same buffer as used in the other assays comparing T. gondii DHFR with DHFRs from rat liver P. carinii and M. avium intracellulare was used but the maximal activity, temperature, and length of observation were adjusted for assays on the specific plate reader. […] The reaction was setup at 23°C, the plate loaded, and the OD340 recorded at 20 second intervals for 10 minutes. The first 8 minutes were used to generate linear fit slopes in Excel. […] Results are expressed as the percent of control activity versus log concentration of inhibitor. Prism 5.0 was used to generate curves from 12 different concentrations of inhibitor using a non-linear fit method.

Rat liver DHFR = target: T1, Rat liver DHFR (Rattus norvegicus, UniProt Q920D2); test: Spectrophotometric DHFR assay, rat liver DHFR; type: biochemical; conditions: 37°C; (95% confidence limits)
T1 construct: Rat liver DHFR was prepared from livers of female Sprague-Dawley rats; from tissue; host or cells: liver of female Sprague-Dawley rats
T1 sequence (Q920D2 1-187): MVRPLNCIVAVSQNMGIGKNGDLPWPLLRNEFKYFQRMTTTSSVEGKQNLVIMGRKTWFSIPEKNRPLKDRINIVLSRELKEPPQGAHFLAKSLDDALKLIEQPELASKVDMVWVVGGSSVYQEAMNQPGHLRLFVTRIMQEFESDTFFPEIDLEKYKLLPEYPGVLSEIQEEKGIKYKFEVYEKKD
Experimental: Rat liver DHFR was prepared from livers of female Sprague-Dawley rats. The 100,000× g supernate was partially purified by ammonium sulfate precipitation; the 50–90% precipitate was re-dissolved and stored in liquid nitrogen.
(§1) The spectrophotometric assay for DHFR was optimized for temperature and concentration of substrate and cofactor for each enzyme. […] The reaction was continuously recorded for 3 minutes. […] The low background activity in the absence of dihydrofolic acid was subtracted from all rates.
(§2) DHFR was assayed with several concentrations of inhibitor to produce rates ranging from 1 to 90% of the uninhibited rate. At least three concentrations were required for calculation; most curves contained five concentrations.

TgDHFR = target: T2, TgDHFR (Toxoplasma gondii, UniProt Q07422); test: biochemical; type: biochemical; conditions: 37°C
T2 construct: DHFR from T. gondii was isolated directly from RH strain T. gondii grown in culture; endogenous in cells; host or cells: RH strain T. gondii grown on CHO/dhfr- cells
T2 sequence (Q07422 1-610): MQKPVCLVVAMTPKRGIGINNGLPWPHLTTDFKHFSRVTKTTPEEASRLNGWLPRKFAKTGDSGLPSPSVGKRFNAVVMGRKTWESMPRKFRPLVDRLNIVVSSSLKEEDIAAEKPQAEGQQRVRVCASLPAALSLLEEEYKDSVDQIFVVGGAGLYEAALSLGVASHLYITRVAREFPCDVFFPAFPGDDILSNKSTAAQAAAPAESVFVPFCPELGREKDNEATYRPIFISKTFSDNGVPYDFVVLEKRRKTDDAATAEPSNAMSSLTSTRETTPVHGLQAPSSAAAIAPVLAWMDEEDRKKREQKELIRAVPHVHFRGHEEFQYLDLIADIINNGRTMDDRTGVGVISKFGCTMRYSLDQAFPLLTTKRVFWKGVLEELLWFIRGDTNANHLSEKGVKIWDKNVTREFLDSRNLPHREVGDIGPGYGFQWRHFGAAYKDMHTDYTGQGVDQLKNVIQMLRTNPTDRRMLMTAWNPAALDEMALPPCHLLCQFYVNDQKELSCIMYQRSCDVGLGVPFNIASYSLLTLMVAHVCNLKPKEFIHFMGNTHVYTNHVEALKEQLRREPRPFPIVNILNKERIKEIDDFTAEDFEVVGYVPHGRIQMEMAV
Experimental: DHFR from Pneumocystis carinii was produced as the recombinant enzyme expressed in Escherichia coli. […] Organisms were introduced into a confluent monolayer and harvested when the mammalian cells were lysed. The 100,000× g supernate was stored in liquid nitrogen.
as §1, §2

[1] = tested on: T. gondii tachyzoites (RH strain); test: Murine toxoplasmosis, i.p. JPC-2067-B, peritoneal parasite burden; type: in vivo, mice (outbred Swiss Webster)
Experimental: Tachyzoites also were used to infect mice. Outbred Swiss Webster mice were bred in our specific pathogen free colony. When they were approximately 30 g, they received 10,000 RH strain tachyzoites intra-peritoneally (i.p.); numbers of parasites present in peritoneal fluid were counted four days later as described,[13]. Mice were maintained and utilized in accordance with IACUC and NIH guidelines and approvals. JPC-2067-B was administered parenterally. In initial studies, this was given 15 minutes after i.p. infection and then each day for four days(1.25 mg/kg/day). […] Control mice received 1% DMSO in PBS. For these parenterally treated mice, female mice received a dose of 1.25 mg/kg/day of JPC-2067-B, administered i.p. for the next 3 days. Control mice received an equivalent amount of DMSO (1%) in 1× PBS. In a separate experiment, DMSO at this concentration was shown not to modify subsequent parasite numbers when compared with i.p. inoculation of PBS. […] In contrast, infected control mice appeared ill, with ruffled fur and hunched posture. […] These differences between control and treated mice were statistically significant (p<0.05).

Chain of PfDHFR (Q8I1R6 entry or part of it): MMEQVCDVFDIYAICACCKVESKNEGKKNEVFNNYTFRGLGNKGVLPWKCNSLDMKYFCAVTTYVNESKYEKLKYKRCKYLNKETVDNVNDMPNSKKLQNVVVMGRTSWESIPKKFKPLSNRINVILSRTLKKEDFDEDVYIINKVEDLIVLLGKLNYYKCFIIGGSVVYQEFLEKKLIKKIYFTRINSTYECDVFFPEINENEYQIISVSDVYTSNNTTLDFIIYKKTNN

Compound: CC1(C)N=C(N)N=C(N)N1OCCCOc1ccc(OC(F)(F)F)cc1Cl [JPC-2067-B, 4,6-diamino-1,2-dihydro-2,2-dimethyl-1-(3′(2-chloro-, 4-trifluoromethoxyphenoxy)propyloxy)-1,3,5-triazine]
- IC50 (PfDHFR; recombinant, 23°C, (95% Confidence Intervals), read-out: PfDHFR IC50): 3.88 nM
- IC50 (PfDHFR; text to Figure 5 and Table 2, read-out: IC50 for P. falciparum DHFR): 3.9 nM
- IC50 (Rat liver DHFR): 22.2 nM
- IC50 (TgDHFR; (95% confidence limits), read-out: Tg DHFR IC50): 6.5 nM
- Ratio of IC50 values rat liver DHFR/TgDHFR (TgDHFR; lysates): 3.4
- Intraperitoneal parasite numbers ([1]; 1.25 mg/kg/day i.p., 10,000 RH tachyzoites i.p., fifth day after injection of parasites, p<0.05): reduced by two logs
- Appearance of treated mice ([1]; 1.25 mg/kg/day i.p., 4 days after infection): sleek and active
